For 1 compound, Kd results are on record in PMC7463712, “Cholesterol as an Endogenous Ligand of ERRα Promotes ERRα-Mediated Cellular Proliferation and Metabolic Target Gene Expression in Breast Cancer Cells” (Cells, 2020).

This test concerns the target T1, estrogen-related receptor alpha (ERRα; NR3B1) (Homo sapiens, UniProt P11474).
T1 construct: gene ESRRA
T1 sequence (P11474 193-423 limits assumed): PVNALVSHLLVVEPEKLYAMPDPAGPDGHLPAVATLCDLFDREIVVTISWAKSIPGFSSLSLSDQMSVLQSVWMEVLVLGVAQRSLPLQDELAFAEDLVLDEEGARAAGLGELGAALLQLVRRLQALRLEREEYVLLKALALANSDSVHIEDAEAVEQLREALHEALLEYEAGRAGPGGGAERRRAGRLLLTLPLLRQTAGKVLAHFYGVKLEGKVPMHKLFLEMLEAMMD
Put plainly: tryptophan fluorescence quenching; GST pull-down with LC-MS/MS. In kind it is binding.

By Kd is commonly meant the concentration at which binding is half-saturated. Higher therefore signals weaker binding. For `CC(C)CCC[C@@H](C)[C@H]1CC[C@H]2[C@@H]3CC=C4C[C@@H](O)CC[C@]4(C)[C@H]3CC[C@]12C` [cholesterol], binding was put at a Kd of 213 nM.
